The values below come from patent US6710045B2, “Heterocyclic fluoroalkenyl thioethers and the use thereof as pesticides (IV)” (priority 2003, dated 2004).

The nature of data set [1]: logP determination by HPLC (EEC Directive 79/831 Annex V.A8). It is filed as physicochemical. The conditions noted are these: for chromatographic logP: pH 2.3, HPLC gradient method, acetonitrile/0.1% aqueous phosphoric acid. The procedure: The logP values were determined in accordance with EEC Directive 79/831 Annex V.A8 by HPLC (gradient method, acetonitrile/0.1% aqueous phosphoric acid).

Data set [2] concerns Meloidogyne incognita egg/larvae. As to the kind of experiment: Meloidogyne test (gall formation on lettuce roots). It is filed as in vivo. The conditions noted are these: active compound concentration 20 ppm; after 14 days. The procedure: Containers are filled with sand, solution of active compound, Meloidogyne incognita egg/larvae suspension and lettuce seeds. The lettuce seeds germinate and the plants develop. On the roots, galls are formed.
After the desired period of time, the nematicidal action is determined in % using gall formation as a measure. 100% means that no galls were found; 0% means that the number of galls on the treated plants corresponds to that of the untreated control.

The subject of data set [3] is larvae of the mustard beetle (Phaedon cochleariae). As to the kind of experiment: Phaedon larvae test (dipped cabbage leaves). Particulars: active compound concentration 0.1%; after 7 days.

On to `FC(F)=C(F)CCCCSc1nc2ccccc2s1` [Example 1, 2-(6,6,5-trifluorohex-5-enylthio)-benzothiazole], for which the chromatographic logP in data set [1] worked out at 4.83. Moreover, in data set [2], the “nematicidal action (activity) using gall formation as a measure” value was found to be 100%. This compound displayed a kill in data set [3] of 100%.
`O=S(=O)(CCCCC(F)=C(F)F)c1nc2ccccc2s1` [Example 3, 2-(6,6,5-trifluorohex-5-enylsulphonyl)-benzothiazole] gave a chromatographic logP in data set [1] of 3.36. Also, the “nematicidal action (activity) using gall formation as a measure” value in data set [2] is given as 90%.
Regarding `FC(F)=C(F)CCCCSc1ccc(-c2ccccc2Cl)nn1` [Example 16], the “logP (pH 2)” value in data set [1] was found to be 4.37.
Consider `FC(F)=C(F)CCCCSc1nc2cc(SC(F)(F)F)ccc2o1` [Example 17], for which the “logP (pH 2)” value in data set [1] stood at 5.62.
